Data reported in PMC4186683 (Molecular Pharmaceutics, 2014).
Marks after values point to notes of the source that are not given here.

Key:
[1] = experimental values from the ClogP database ref 119; cited from earlier work
[2] = DMPC bilayer; listed in Table 1; cited from earlier work
[3] = marked values, listed in Table 1; cited from earlier work
[4] = test system: rhodopsin; details: 1-palmitoyl-2-oleoyl-PC vesicles ref 132; cited from earlier work
[5] = Fraction of total tissue amount present in the bilayer, calculated from Pb/w; details: bilayer volume 2.5% of tissue volume, no protein binding

| Compound | logP O/W [1] | also measured |
| --- | --- | --- |
| Clc1c(Cl)c(Cl)c(-c2ccccc2)c(Cl)c1Cl [compound 35, 2,3,4,5,6-pentachlorobiphenyl] | 6.74 | – |
| Clc1cc(Cl)c(-c2ccccc2)c(Cl)c1 [compound 47, 2,4,6-trichlorobiphenyl] | 5.71 | – |
| CCOC(=O)c1cccnc1 [compound 95, ethylnicotinate] | 1.32 | – |
| CC(C)(c1ccc(O)cc1)c1ccc(O)cc1 [compound 91, bisphenol A] | – | log P bilayer/water exptl [2]: 2.95; log P C16/DAcPC [3]: –2.70 ^b |
| Clc1ccccc1-c1ccccc1Cl [compound 33, 2,2′-dichlorobiphenyl] | 4.97 | – |
| BrCCCc1ccccc1 [compound 8, 1-bromo-3-phenylpropane] | 3.72 | – |
| CCCCCCCO [compound 115] | – | effect on photolysis of rhodopsin [4]: inhibitory effect |
| Clc1cccc(-c2ccccc2)c1Cl [compound 43, 2,3-dichlorobiphenyl] | 4.99 | – |
| Clc1ccc(Cl)c(-c2cccc(Cl)c2Cl)c1 [compound 21, 2,2′,3,5′-tetrachlorobiphenyl] | 5.81 | – |
| OCc1ccccc1 [compound 89, benzylalcohol] | – | log P bilayer/water exptl [2]: 2.03 |
| CC(=O)c1ccc(N)cc1 [compound 68, 4-aminoacetophenone] | 0.86 | – |
| Cc1ccc2cc3ccccc3cc2c1 [compound 60, 2-methylanthracene] | 5.00 | – |
| Nc1cc2ccccc2cc1N [compound 42, 2,3-diaminonaphthalene] | 1.54 | – |
| Clc1cccc(-c2cccc(Cl)c2Cl)c1Cl [compound 18, 2,2′,3,3′-tetrachlorobiphenyl] | 6.18 | – |
| CCCCCCO [compound 11, 1-hexanol] | – | fraction of the total amount in the tissue present in the bilayer [5]: 68%; effect on photolysis of rhodopsin [4]: negligible |
| Clc1cc(Cl)cc(Cl)c1 [compound 2, 1,3,5-trichlorobenzene] | 4.19 | – |
| Cc1ccc([N+](=O)[O-])cc1 [compound 79, 4-nitrotoluene] | 2.37 | – |
| CN(C)c1ccc(C=O)cc1 [compound 77, 4-dimethylamino-benzaldehyde] | 2.01 | – |
| Clc1ccc(Cl)c(-c2ccccc2)c1Cl [compound 40, 2,3,6-trichlorobiphenyl] | 5.67 | – |
| CCCc1ccccc1 [compound 101, n-propylbenzene] | – | log P bilayer/water exptl [2]: 3.29; log P C16/DAcPC [3]: 2.98 ^b |
| Clc1cccc(-c2c(Cl)cccc2Cl)c1 [compound 41, 2,3′,6-trichlorobiphenyl] | 5.67 | – |
| Clc1ccc(Cl)c(-c2cc(Cl)ccc2Cl)c1 [compound 29, 2,2′,5,5′-tetrachlorobiphenyl] | 6.26 | – |

| Compound | logP O/W [1] | also measured |
| --- | --- | --- |
| CCCCCCCCO [compound 116] | – | effect on photolysis of rhodopsin [4]: inhibitory effect |
| Clc1ccccc1Cl [compound 1, 1,2-dichlorobenzene] | 3.43 | – |
| Clc1ccc(-c2ccccc2Cl)c(Cl)c1 [compound 28, 2,2′,4-trichlorobiphenyl] | 5.76 | – |
| Clc1cc(Cl)c(-c2ccccc2Cl)cc1Cl [compound 26, 2,2′,4,5-tetrachlorobiphenyl] | 6.27 | – |
| Clc1cccc(-c2ccccc2Cl)c1 [compound 44, 2,3′-dichlorobiphenyl] | 5.02 | – |
| Clc1cccc(Cl)c1-c1ccccc1 [compound 53, 2,6-dichlorobiphenyl] | 4.98 | – |
| Clc1cc(Cl)c(-c2ccccc2)cc1Cl [compound 46, 2,4,5-trichlorobiphenyl] | 5.90 | – |
| Clc1ccccc1-c1ccccc1 [compound 58, 2-chlorobiphenyl] | 4.53 | – |
| Cc1ccc(C)c(O)c1 [compound 52, 2,5-dimethylphenol] | 2.33 | – |
| CCO [compound 94, ethanol] | – | effect on photolysis of rhodopsin [4]: promoting effect |
| Nc1ccc(Br)cc1 [compound 71, 4-bromoaniline] | 2.11 | – |
| Cc1cc(O)ccc1Cl [compound 74, 4-chloro-3-methylphenol] | 3.10 | fraction of the total amount in the tissue present in the bilayer [5]: 97% |
| Clc1cccc(-c2cc(Cl)ccc2Cl)c1 [compound 39, 2,3′,5-trichlorobiphenyl] | 5.76 | – |
| Clc1ccc(Cl)c(-c2c(Cl)ccc(Cl)c2Cl)c1Cl [compound 17, 2,2′,3,3′,6,6′-hexachlorobiphenyl] | 7.12 | – |
| Clc1cccc(-c2ccc(Cl)c(Cl)c2Cl)c1Cl [compound 16, 2,2′,3,3′,4-pentachlorobiphenyl] | 6.30 | – |
| Clc1ccccc1 [compound 92, chlorobenzene] | 2.89 | – |
| Clc1ccc(-c2ccccc2Cl)cc1 [compound 50, 2,4′-dichlorobiphenyl] | 5.10 | – |
| Brc1cccc2ccccc12 [compound 10, 1-bromonaphthalene] | 4.06 | – |
| Cc1cccc(C)c1[N+](=O)[O-] [compound 4, 1,3-dimethyl-2-nitrobenzene] | 2.95 | – |
| BrCCc1ccccc1 [compound 7, 1-bromo-2-phenylethane] | 3.09 | fraction of the total amount in the tissue present in the bilayer [5]: 93% |
| CCCCCO [compound 114, 1-pentanol] | – | effect on photolysis of rhodopsin [4]: promoting effect |
| Clc1ccc(-c2cc(Cl)ccc2Cl)c(Cl)c1 [compound 27, 2,2′,4,5′-tetrachlorobiphenyl] | 6.36 | – |

| Compound | logP O/W [1] | also measured |
| --- | --- | --- |
| Cc1ccccc1Br [compound 57, 2-bromotoluene] | 3.50 | – |
| Clc1cc(Cl)c(-c2c(Cl)cc(Cl)cc2Cl)c(Cl)c1 [compound 24, 2,2′,4,4′,6,6′-hexachlorobiphenyl] | 7.29 | – |
| Clc1ccc(Cl)c(-c2cc(Cl)c(Cl)cc2Cl)c1 [compound 25, 2,2′,4,5,5′-pentachlorobiphenyl] | 6.85 | – |
| O=C(c1ccccc1)c1ccc(Cl)cc1 [compound 75, 4-chlorobenzophenone] | 3.79 | – |
| Clc1ccccc1-c1c(Cl)cccc1Cl [compound 31, 2,2′,6-trichlorobiphenyl] | 5.47 | – |
| CCCCO [compound 113, 1-butanol] | – | effect on photolysis of rhodopsin [4]: promoting effect |
| Nc1cccc(Br)c1 [compound 63, 3-bromoaniline] | 2.10 | – |
| Cc1ccc(C)cc1 [compound 6, 1,4-dimethylbenzene] | – | log P bilayer/water exptl [2]: 2.98; log P C16/DAcPC [3]: 2.59 ^b |
| Clc1ccccc1-c1cccc(Cl)c1Cl [compound 23, 2,2′,3-trichlorobiphenyl] | 5.60 | – |
| CCCCCc1ccc(O)cc1 [compound 80, 4-n-pentylphenol] | 4.24 | – |
| c1ccc2c(c1)ccc1ccccc12 [compound 104, phenanthrene] | 4.46 | – |
| Clc1cccc(Cl)c1 [compound 3, 1,3-dichlorobenzene] | 3.53 | – |
| Clc1ccc(-c2ccccc2)c(Cl)c1 [compound 49, 2,4-dichlorobiphenyl] | 5.30 | – |
| Clc1ccc(-c2ccc(Cl)c(Cl)c2Cl)c(Cl)c1Cl [compound 14, 2,2′,3,3′,4,4′-hexachlorobiphenyl] | 7.32 | – |
| Clc1ccc(Cl)c(-c2ccccc2)c1 [compound 51, 2,5-dichlorobiphenyl] | 5.16 | – |
| Nc1cc(Cl)c(Cl)cc1Cl [compound 45, 2,4,5-trichloroaniline] | 3.69 | – |
| c1ccc2[nH]ccc2c1 [compound 111, indole] | – | fraction of the total amount in the tissue present in the bilayer [5]: 81% |
| COc1cccc(OC)c1O [compound 54, 2,6-dimethoxyphenol] | 1.15 | – |
| OCc1c2ccccc2cc2ccccc12 [compound 82, 9-anthracenemethanol] | – | log P bilayer/water exptl [2]: 3.50; fraction of the total amount in the tissue present in the bilayer [5]: 99%; log P C16/DAcPC [3]: –0.42 ^b |
| Clc1cc(-c2ccccc2)c(Cl)c(Cl)c1Cl [compound 36, 2,3,4,5-tetrachlorobiphenyl] | 6.41 | – |
| Clc1ccc(-c2c(Cl)cccc2Cl)cc1 [compound 48, 2,4′,6-trichlorobiphenyl] | 5.75 | – |
| Clc1ccc(Br)cc1 [compound 9, 1-bromo-4-chlorobenzene] | 3.54 | – |
